Target: T1, murine SR-BI (Mus musculus, UniProt Q61009)
T1 construct: expressed in transfected cells; host or cells: ldlA-7 (LDL receptor deficient Chinese hamster ovary cells)
T1 sequence (Q61009 1-509): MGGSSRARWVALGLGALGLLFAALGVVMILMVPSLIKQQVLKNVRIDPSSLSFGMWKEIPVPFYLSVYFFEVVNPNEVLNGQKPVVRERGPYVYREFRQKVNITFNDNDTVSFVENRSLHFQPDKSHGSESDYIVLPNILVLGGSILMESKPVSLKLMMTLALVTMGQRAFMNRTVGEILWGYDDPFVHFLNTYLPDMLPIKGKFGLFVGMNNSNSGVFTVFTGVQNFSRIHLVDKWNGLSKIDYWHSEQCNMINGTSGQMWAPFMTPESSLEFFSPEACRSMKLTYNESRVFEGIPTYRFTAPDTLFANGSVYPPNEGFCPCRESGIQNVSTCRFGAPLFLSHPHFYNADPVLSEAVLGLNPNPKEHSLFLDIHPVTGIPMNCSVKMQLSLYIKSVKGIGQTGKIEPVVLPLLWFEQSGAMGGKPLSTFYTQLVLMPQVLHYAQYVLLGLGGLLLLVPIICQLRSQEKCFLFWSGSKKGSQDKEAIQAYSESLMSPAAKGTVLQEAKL
Test: Uptake of DiI from DiI-HDL by ldlA[mSR-BI] cells (high throughput screen and concentration dependence)
Assay type: cell-based
Conditions: Test 1; DiI uptake from DiI-HDL, compounds at nominal 10 micromolar, ldlA[mSR-BI] cells

| Structure (SMILES) | ENDOHDL Test 1 |
| --- | --- |
| O=C(/C=C/c1cccc([N+](=O)[O-])c1)Nc1cccc(Cl)c1 [MIT 9952-291] | 0.55 |
| CCSC(=O)C(NC1=C(C)C(=O)N1)c1ccccc1 (stereo not shown) [MIT 9952-292] | 0.47 |
| Br.NS(=O)(=O)c1ccc(Nc2nc(-c3ccc(Cl)cc3)cs2)cc1 [MIT 9952-293] | 0.69 |
| C=CC/C=C/c1c(NC(=O)c2ccccc2)sc2c1CCCC2 [MIT 9952-294] | 0.61 |
| CCN1/C(=C\C(=O)c2ccc(C)cc2)Sc2ccccc21 [MIT 9952-295] | 0.64 |
| O=C(Nc1sc2c(c1C(=O)NCCc1ccc(O)cc1)CCCC2)c1ccccc1 [MIT 9952-296] | 0.63 |
| CCOC(=O)C1=C(C)NC(=S)N(C=O)C1c1ccccc1 (stereo not shown) [MIT 9952-297] | 0.56 |
| O=C(/C=C/C=C(Cl)Cl)c1ccc2c(c1)OCO2 [MIT 9952-298] | 1.29 |
| [O-][n+]1onc2c3cc(-c4ccccc4)[nH]c3ccc21 [MIT 9952-304] | 0.35 |
| Clc1ccc(N2CCC/C2=N\c2c3c(nc4ccccc24)N(c2ccccc2)CC3)cc1Cl [MIT 9952-305] | 0.67 |
| C/C(=N\NC(N)=S)c1ccc[nH]1 [MIT 9952-309] | 0.7 |
| O=C(CSC1=NCCN1)Nc1ccccc1 [MIT 9952-314] | 0.55 |
| CCOC(=O)C1=C(c2ccc(Cl)cc2)C(=O)c2ccccc2C1=O [MIT 9952-315] | 0.51 |
| Br.Oc1c(Br)cccc1CN(Cc1cc(Br)cc(Br)c1O)C1CCCCC1 [MIT 9952-316] | 0.71 |
| NCC[Se][Se]CCN [MIT 9952-318] | 0.67 |
| O=C(O)c1cc(C(=O)O)nc(C(=O)O)c1 [MIT 9952-319] | 1.13 |
| CCOc1ccc2nc3cc(/N=N/c4ccc(N)nc4N)ccc3c(N)c2c1 [MIT 9952-320] | 0.54 |
| Cc1cc(O)nc2cc3oc4ccccc4c3cc12 [MIT 9952-322] | 0.79 |
| Cc1ccsc1/C=N/NC(=O)c1cccc([N+](=O)[O-])c1 [MIT 9952-323] | 0.46 |
| O=C(Nc1ccc(Oc2ccc(Cl)c3cccnc23)c(Cl)c1)c1ccc([N+](=O)[O-])cc1 [MIT 9952-324] | 0.55 |
| O=C(NC(NC(=S)Nc1cccc2ccccc12)C(Cl)(Cl)Cl)c1cccc([N+](=O)[O-])c1 (stereo not shown) [MIT 9952-325] | 0.56 |
| NC(=O)N/N=C/c1ccc(-c2ccc([N+](=O)[O-])cc2)o1 [MIT 9952-326] | 0.55 |
| O=C(NC(NC(=S)Nc1cccc([N+](=O)[O-])c1)C(Cl)(Cl)Cl)C(c1ccccc1)c1ccccc1 (stereo not shown) [MIT 9952-327] | 0.4 |
| O=C(NNC(=O)c1cccc2ccccc12)c1ccc(NC(=O)c2cccc3ccccc23)cc1 [MIT 9952-329] | 0.57 |
| CCn1c2ccccc2c2cc(/C=N/NC(N)=S)ccc21 [MIT 9952-330] | 0.59 |
| CC(C)(C)c1ccc(C(=O)Nc2cccc(NC(=O)c3cccc([N+](=O)[O-])c3)c2)cc1 [MIT 9952-331] | 0.63 |

Same assay, conditions: Test 2; DiI uptake from DiI-HDL, compounds at nominal 10 micromolar, ldlA[mSR-BI] cells

| Structure (SMILES) | ENDOHDL Test 2 |
| --- | --- |
| O=C(/C=C/c1cccc([N+](=O)[O-])c1)Nc1cccc(Cl)c1 [MIT 9952-291] | 0.51 |
| CCSC(=O)C(NC1=C(C)C(=O)N1)c1ccccc1 (stereo not shown) [MIT 9952-292] | 0.58 |
| Br.NS(=O)(=O)c1ccc(Nc2nc(-c3ccc(Cl)cc3)cs2)cc1 [MIT 9952-293] | 0.67 |
| C=CC/C=C/c1c(NC(=O)c2ccccc2)sc2c1CCCC2 [MIT 9952-294] | 0.56 |
| CCN1/C(=C\C(=O)c2ccc(C)cc2)Sc2ccccc21 [MIT 9952-295] | 0.58 |
| O=C(Nc1sc2c(c1C(=O)NCCc1ccc(O)cc1)CCCC2)c1ccccc1 [MIT 9952-296] | 0.61 |
| CCOC(=O)C1=C(C)NC(=S)N(C=O)C1c1ccccc1 (stereo not shown) [MIT 9952-297] | 0.46 |
| O=C(/C=C/C=C(Cl)Cl)c1ccc2c(c1)OCO2 [MIT 9952-298] | 1.24 |
| [O-][n+]1onc2c3cc(-c4ccccc4)[nH]c3ccc21 [MIT 9952-304] | 0.44 |
| Clc1ccc(N2CCC/C2=N\c2c3c(nc4ccccc24)N(c2ccccc2)CC3)cc1Cl [MIT 9952-305] | 0.6 |
| C/C(=N\NC(N)=S)c1ccc[nH]1 [MIT 9952-309] | 0.68 |
| O=C(CSC1=NCCN1)Nc1ccccc1 [MIT 9952-314] | 0.54 |
| CCOC(=O)C1=C(c2ccc(Cl)cc2)C(=O)c2ccccc2C1=O [MIT 9952-315] | 0.53 |
| Br.Oc1c(Br)cccc1CN(Cc1cc(Br)cc(Br)c1O)C1CCCCC1 [MIT 9952-316] | 0.72 |
| NCC[Se][Se]CCN [MIT 9952-318] | 0.81 |
| O=C(O)c1cc(C(=O)O)nc(C(=O)O)c1 [MIT 9952-319] | 1.17 |
| CCOc1ccc2nc3cc(/N=N/c4ccc(N)nc4N)ccc3c(N)c2c1 [MIT 9952-320] | 0.83 |
| Cc1cc(O)nc2cc3oc4ccccc4c3cc12 [MIT 9952-322] | 0.86 |
| Cc1ccsc1/C=N/NC(=O)c1cccc([N+](=O)[O-])c1 [MIT 9952-323] | 0.63 |
| O=C(Nc1ccc(Oc2ccc(Cl)c3cccnc23)c(Cl)c1)c1ccc([N+](=O)[O-])cc1 [MIT 9952-324] | 0.56 |
| O=C(NC(NC(=S)Nc1cccc2ccccc12)C(Cl)(Cl)Cl)c1cccc([N+](=O)[O-])c1 (stereo not shown) [MIT 9952-325] | 0.49 |
| NC(=O)N/N=C/c1ccc(-c2ccc([N+](=O)[O-])cc2)o1 [MIT 9952-326] | 0.53 |
| O=C(NC(NC(=S)Nc1cccc([N+](=O)[O-])c1)C(Cl)(Cl)Cl)C(c1ccccc1)c1ccccc1 (stereo not shown) [MIT 9952-327] | 0.45 |
| O=C(NNC(=O)c1cccc2ccccc12)c1ccc(NC(=O)c2cccc3ccccc23)cc1 [MIT 9952-329] | 0.53 |
| CCn1c2ccccc2c2cc(/C=N/NC(N)=S)ccc21 [MIT 9952-330] | 0.56 |
| CC(C)(C)c1ccc(C(=O)Nc2cccc(NC(=O)c3cccc([N+](=O)[O-])c3)c2)cc1 [MIT 9952-331] | 0.35 |
